From PubChem BioAssay AID248 (DTP/NCI, 2004)
Several values for one entry are separate records, joined by “and”; a condition that tells them apart may be missing. Equal entries are not always repeated. Inconclusive results and toxic doses are left out. Cut-off read from the data, not from the text of the source: active = T/C of 150% or more; inactive = T/C below 125%.

System: L1210 leukemia ip in BDF1 mice, survival T/C
Assay: NCI In Vivo Anticancer Drug Screen. Data for tumor model L1210 Leukemia (intraperitoneal) in B6D2F1 (BDF1) mice
Details: endpoint: mean survival time, higher = longer survival
Method in brief: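 Ratio derived from survival: compound-dosed mice over vehicle-dosed mice, all bearing a transplantable tumor.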

[1] = dose: 100.0 mg/kg/injection, schedule: Q04DX003 (ip), vehicle: gum acacia
[2] = dose: 200.0 mg/kg/injection, schedule: Q04DX003 (ip), vehicle: gum acacia
[3] = dose: 400.0 mg/kg/injection, schedule: Q04DX003 (ip), vehicle: gum acacia
[4] = dose: 50.0 mg/kg/injection, schedule: Q01DX009 (ip), vehicle: saline with Tween-80
[5] = dose: 100.0 mg/kg/injection, schedule: Q01DX009 (ip), vehicle: saline with Tween-80
[6] = dose: 100.0 mg/kg/injection, schedule: Q04DX003 (ip), vehicle: saline with Tween-80
[7] = dose: 200.0 mg/kg/injection, schedule: Q01DX009 (ip), vehicle: saline with Tween-80
[8] = dose: 200.0 mg/kg/injection, schedule: Q04DX003 (ip), vehicle: saline with Tween-80
[9] = dose: 400.0 mg/kg/injection, schedule: Q01DX009 (ip), vehicle: saline with Tween-80
[10] = dose: 400.0 mg/kg/injection, schedule: Q04DX003 (ip), vehicle: saline with Tween-80
[11] = dose: 100.0 mg/kg/injection, schedule: Q04DX002 (ip), vehicle: Klucel (hydroxypropylcellulose) (HPC)
[12] = dose: 200.0 mg/kg/injection, schedule: Q04DX002 (ip), vehicle: Klucel (hydroxypropylcellulose) (HPC)
[13] = dose: 100.0 mg/kg/injection, schedule: Q01DX001 (ip), vehicle: saline with Tween-80
[14] = dose: 200.0 mg/kg/injection, schedule: Q01DX001 (ip), vehicle: saline with Tween-80
[15] = dose: 100.0 mg/kg/injection, schedule: Q01DX009 (ip), vehicle: Klucel (hydroxypropylcellulose) (HPC)
[16] = dose: 100.0 mg/kg/injection, schedule: Q04DX003 (ip), vehicle: Klucel (hydroxypropylcellulose) (HPC)
[17] = dose: 200.0 mg/kg/injection, schedule: Q01DX009 (ip), vehicle: Klucel (hydroxypropylcellulose) (HPC)
[18] = dose: 200.0 mg/kg/injection, schedule: Q04DX003 (ip), vehicle: Klucel (hydroxypropylcellulose) (HPC)
[19] = dose: 400.0 mg/kg/injection, schedule: Q04DX003 (ip), vehicle: Klucel (hydroxypropylcellulose) (HPC)

Measured: T/C

CCC[CH2][Sn]([Cl])([CH2]CCC)[CH2]CCC
inactive: dose: 2.0 mg/kg/injection, schedule: Q01DX009 (ip), vehicle: saline 94 % of control | dose: 2.0 mg/kg/injection, schedule: Q04DX003 (ip), vehicle: saline 103 % of control | dose: 4.0 mg/kg/injection, schedule: Q01DX009 (ip), vehicle: saline 90 % of control | dose: 4.0 mg/kg/injection, schedule: Q04DX003 (ip), vehicle: saline 100 % of control | dose: 8.0 mg/kg/injection, schedule: Q01DX009 (ip), vehicle: saline 98 % of control | dose: 8.0 mg/kg/injection, schedule: Q04DX003 (ip), vehicle: saline 97 % of control

Oc1cccc(C2=NNC(c3cccc(O)c3)=NN2)c1
inactive: [1] 93 % of control | [2] 89 % of control | [3] 86 % of control

CCCCCCCCCCCCCCCCOP(=O)(O)OCCCCCCCCCCCCCCCC
inactive: [4] 98 % of control | [5] 91 % of control | [6] 105 % of control | [7] 89 % of control | [8] 90 % of control | [9] 93 % of control | [10] 95 % of control

CC1CCC(O)C1O (stereo not given)
inactive: dose: 100.0 mg/kg/injection, schedule: Q01DX009 (ip), vehicle: saline 105 % of control | dose: 100.0 mg/kg/injection, schedule: Q04DX003 (ip), vehicle: saline 94 % of control | dose: 200.0 mg/kg/injection, schedule: Q01DX009 (ip), vehicle: saline 105 % of control | dose: 200.0 mg/kg/injection, schedule: Q04DX003 (ip), vehicle: saline 97 % of control | dose: 400.0 mg/kg/injection, schedule: Q01DX009 (ip), vehicle: saline 102 % of control | dose: 400.0 mg/kg/injection, schedule: Q04DX003 (ip), vehicle: saline 97 % of control

CCOC(=O)C1(CC)CNCC(CC)(C(=O)OCC)C1=O (stereo not given)
inactive: dose: 50.0 mg/kg/injection, schedule: Q01DX001 (ip), vehicle: saline 103 % of control | dose: 100.0 mg/kg/injection, schedule: Q01DX001 (ip), vehicle: saline 104 % of control | dose: 200.0 mg/kg/injection, schedule: Q01DX001 (ip), vehicle: saline 101 % of control | dose: 400.0 mg/kg/injection, schedule: Q01DX001 (ip), vehicle: saline 97 % of control

COc1cc(Cl)ccc1C
inactive: [4] 98 % of control | [5] 93 % of control | [6] 93 % of control | [7] 90 % of control | [8] 89 % of control

Cc1csc2nc(-c3ccccc3)[nH]c(=O)c12
inactive: dose: 75.0 mg/kg/injection, schedule: Q01DX001 (ip), vehicle: saline sonified 86 % of control | dose: 150.0 mg/kg/injection, schedule: Q01DX001 (ip), vehicle: saline sonified 101 % of control | dose: 300.0 mg/kg/injection, schedule: Q01DX001 (ip), vehicle: saline sonified 107 % of control

CCO/C=C1/C(=O)N(C)c2c1c(=O)n(C)c(=O)n2C
inactive: [11] 106 % of control | [12] 109 % of control

CCC(O)(c1ccccc1)c1cnc(C)n1Cc1ccccc1 (stereo not given)
inactive: [13] 100 % of control and 108 % of control | [11] 102 % of control | dose: 100.0 mg/kg/injection, schedule: Q04DX002 (ip), vehicle: saline with Tween-80 93 % of control and 105 % of control | [6] 101 % of control | [14] 107 % of control and 91 % of control | [12] 112 % of control | dose: 200.0 mg/kg/injection, schedule: Q04DX002 (ip), vehicle: saline with Tween-80 88 % of control and 91 % of control | [8] 100 % of control | dose: 400.0 mg/kg/injection, schedule: Q04DX002 (ip), vehicle: saline with Tween-80 88 % of control and 90 % of control

CC(=O)OCc1ccc(Cl)c(Cl)c1
inactive: dose: 50.0 mg/kg/injection, schedule: Q01DX009 (ip), vehicle: saline sonified 100 % of control | dose: 100.0 mg/kg/injection, schedule: Q01DX009 (ip), vehicle: saline sonified 100 % of control | dose: 100.0 mg/kg/injection, schedule: Q04DX003 (ip), vehicle: saline sonified 101 % of control | dose: 200.0 mg/kg/injection, schedule: Q01DX009 (ip), vehicle: saline sonified 97 % of control | dose: 200.0 mg/kg/injection, schedule: Q04DX003 (ip), vehicle: saline sonified 107 % of control | dose: 400.0 mg/kg/injection, schedule: Q04DX003 (ip), vehicle: saline sonified 106 % of control

O=C1N(c2ccccc2)C(c2ccc([N+](=O)[O-])cc2)C1(c1ccccc1)c1ccccc1 (stereo not given)
inactive: [1] 96 % of control | [2] 89 % of control | [3] 96 % of control

O=[N+]([O-])c1ccc(N/N=C(\Cc2ccccc2)c2ccccc2)c([N+](=O)[O-])c1
inactive: [6] 91 % of control | [8] 91 % of control | [10] 87 % of control

O=C(O)c1cc(Br)c(OCc2ccccc2)c(Br)c1
inactive: [13] 101 % of control | [14] 104 % of control | dose: 400.0 mg/kg/injection, schedule: Q01DX001 (ip), vehicle: saline with Tween-80 104 % of control

CC(C)(C)c1cc(CN2CCOCC2)cc(C(C)(C)C)c1O
inactive: [5] 96 % of control | [7] 104 % of control | [9] 96 % of control

Nc1ccccc1Oc1ccccc1
inactive: [15] 94 % of control | [16] 97 % of control | [17] 97 % of control | [18] 98 % of control | dose: 400.0 mg/kg/injection, schedule: Q01DX009 (ip), vehicle: Klucel (hydroxypropylcellulose) (HPC) 100 % of control | [19] 101 % of control

NCC(=O)O.[Zn+2]
inactive: dose: 100.0 mg/kg/injection, schedule: Q01DX001 (ip), vehicle: water 97 % of control | dose: 200.0 mg/kg/injection, schedule: Q01DX001 (ip), vehicle: water 96 % of control | dose: 400.0 mg/kg/injection, schedule: Q01DX001 (ip), vehicle: water 94 % of control

CN/N=C1\CCC2C3CCc4cc(O)ccc4C3CCC12C (stereo not given)
inactive: [15] 95 % of control | [17] 89 % of control

CN(C)c1ccc(C=Nc2cccc(O)c2)cc1
inactive: dose: 100.0 mg/kg/injection, schedule: Q01DX001 (ip), vehicle: carboxymethylcellulose (CMC) 102 % of control | dose: 200.0 mg/kg/injection, schedule: Q01DX001 (ip), vehicle: carboxymethylcellulose (CMC) 88 % of control | dose: 400.0 mg/kg/injection, schedule: Q01DX001 (ip), vehicle: carboxymethylcellulose (CMC) 94 % of control

Nc1cccc2c1C(=O)c1cccc(N)c1C2=O
inactive: [16] 101 % of control | [18] 96 % of control | [19] 96 % of control
